Laboratory results taken from paper PMC7203735, “Characterization of an A-Type Muscarinic Acetylcholine Receptor and Its Possible Non-neuronal Role in the Oriental Armyworm, Mythimna separata Walker (Lepidoptera: Noctuidae)” (Frontiers in Physiology, 2020).
Where two headings read alike, the source gives them in different places.

Target: T1, Ms A-type mAChR (Ms A-mAChR) (Mythimna separata, UniProt A0A2D1QUJ3)
T1 sequence (A0A2D1QUJ3 1-601): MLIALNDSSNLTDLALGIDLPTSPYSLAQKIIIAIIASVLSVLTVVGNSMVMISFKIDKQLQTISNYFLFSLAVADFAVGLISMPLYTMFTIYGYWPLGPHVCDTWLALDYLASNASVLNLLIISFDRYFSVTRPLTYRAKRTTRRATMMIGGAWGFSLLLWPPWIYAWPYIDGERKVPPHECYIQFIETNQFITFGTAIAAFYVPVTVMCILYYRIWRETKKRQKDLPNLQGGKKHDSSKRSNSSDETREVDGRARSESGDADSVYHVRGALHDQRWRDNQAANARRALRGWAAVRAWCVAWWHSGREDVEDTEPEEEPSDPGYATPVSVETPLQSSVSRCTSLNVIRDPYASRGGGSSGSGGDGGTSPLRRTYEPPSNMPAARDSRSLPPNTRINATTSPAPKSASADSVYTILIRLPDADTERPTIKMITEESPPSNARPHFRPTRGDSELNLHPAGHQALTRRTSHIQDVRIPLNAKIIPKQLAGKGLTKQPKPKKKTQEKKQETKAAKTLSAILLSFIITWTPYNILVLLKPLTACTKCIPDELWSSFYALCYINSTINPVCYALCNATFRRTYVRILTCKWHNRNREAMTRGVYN
Assay: FLIPR calcium mobilization in transfected HEK […] cells
Format: cell-based

Compound	EC50 (read-out: EC50)	EC50
C[N+](C)(C)CCOC(N)=O [carbachol]	125 nM	
C[C@@H]1O[C@H](C[N+](C)(C)C)C[C@H]1O [muscarine]		388 nM
